{
  "source": "patent US20050208496A1",
  "about": "“Methods of testing for bronchial asthma or chronic obstructive pulmonary disease” (Genox Research, Inc., priority 2002, published 2005)",
  "tested_on": "Balb/c mice",
  "assay": "OVA antigen-exposed bronchial hypersensitivity mouse model, respiratory constriction caused by acetylcholine",
  "type": "in vivo",
  "details": "5 mg/kg orally",
  "description": "50 μg OVA and 1 mg aluminum hydroxide (an adjuvant) were injected into the peritoneal cavity of Balb/c mice (male, seven-week old), and after 10 days the mice was sensitized with OVA under the same conditions. Then, after 10 days, 1% OVA was given by inhalation using the Ultra-nebulizer model UN701 (Azwell (Co., Ltd.)) for 30 minutes every four days three times in total. Enhanced bronchial hypersensitivity was monitored by detecting the respiratory constriction caused by acetylcholine (6.25-2000 μg/kg) using an artificial respirator (model 131, New England Medical Instruments Inc.) 24 hours after the final antigen inhalation (Nagai H. et al, Int Arch Allergy Immunol; 108: 189-195, 1995). Bronchial hypersensitivity can be induced by this treatment.",
  "data": [
    {"compound": "C[C@]12C=CC(=O)C=C1CC[C@@H]1[C@@H]2[C@@H](O)C[C@@]2(C)[C@H]1CC[C@]2(O)C(=O)CO", "note": "[Prednisolone]", "values": [
      {"measurement": "development of bronchial hypersensitivity", "result": "suppressed"}
    ]}
  ]
}
